# According to patent US4666929A, “Anthranilic acid ester derivatives and antiinflammatory and analgetic external preparations containing the same” (Shiseido Company Ltd., priority 1985, dated 1987):
# Experiments:
# [1] = test system: carrageenan foot pad edema; assay: Evaluation Test Example 3 (Antiinflammatory Activity), rat/carrageenan foot pad edema method; format: in vivo; conditions: oral, 100 mg/kg, 5 hours after λ-carrageenan injection
# Procedure: (§1) The antiinflammatory effects of the present compounds were determined according to the so-called rat/carrageenan foot pad edema method. This method is admitted as a standard test method for determining antiinflammatory effects, because this method has a high correlationship with human antiinflammatory effects.
# (§2) The evaluation test was carried out using Wister male rats (i.e., body weight =110-130 g, 8 rats in each group) according to a Winter et al method set forth in "Proceedings of the Society for Experimental Biology & Medicine, 111, p 554, 1962).
# (§3) The sample compounds listed in Table 4 were dispersed in a 0.5% aqueous carboxymethyl cellulose solution and orally administered in a dosage of 100 mg/kg. One hour after the administration, 0.1 ml of a 1% λ-carrageenan/physiological saline was subcutaneously applied to the foot pad of one paw of the rat as an inflammatory inducing substance. Thus, the edema was caused. The volumes of the foot pad were measured in the predetermined constant time period before and after the administration and the increase (V1) in the volume was calculated. On the other hand, the increase (V0) in the volume of the foot pad of the control rats, to which the aqueous 0.5% carboxymethyl cellulose solution containing no test sample compounds, was determined by injecting the λ-carageenan. Thus, the inhibition (%) of the carageenan edema was calculated as follows: [formula] The antiinflammatory activity is high when this value is large.
# [2] = test system: pain induced by the brewer's yeast; assay: Evaluation Test Example 7 (Analgetic Activity), Randall-Selitto method; format: in vivo, rat; conditions: topical, 2.5 mg/paw, 5 hours after injection of brewer's yeast
# Procedure: This method is admitted as a standard method for evaluating non-anesthetic analgesic agent.
# The test sample compounds were applied to the both foot pad of hind paws of the rats each in an application amount of 50 μl as a 2.5% ethanol solution. After one hour, 50 μl each of the ethanol solution of the sample compound was again applied and 0.1 ml of a 5% brewer's yeast/physiological saline was immediately subcutaneously applied to one foot pad of the rat as a pain inducing substance. After a predetermined time period, the weight of the pain generation was measured using a horizontal balance type presser and the decrease rate (P1) of the pain threshold value was determined. The above-mentioned evaluation test procedure was also carried out in the control rat group, except that the solvent containing no sample compounds was applied. Thus, the decrease rate (P0) of the pain threshold value in the control group was determined. The inhibition (%) of the pain induced by the brewer's yeast was calculated as follows: [formula] When this value is large, the analgetic activity is high.
# UV induced erythema [3] = assay: Evaluation Test Example 5 (Antiinflammatory Activity), ultraviolet erythema method; format: in vivo, guinea pig; conditions: topical, 25 μg/cm^2, 3 hours after UV irradiation
# Procedure: The evaluation test of N-(2,3-xylyl) anthranilic acid derivatives was carried out according to the so-called ultraviolet erythema method.
# (§4) Healthy Hartley strain albino guinea pigs (i.e., body weight=450-500 g, 10 pigs in each group) were used as the test animals. The back skin of the guinea pigs was clipped and shaved, and sections having a size of 1.41 cm×1.41 cm were prepared in the back skin, by using a rubber plate, symmetrically spaced from the back center line. The divided sections were irradiated with ultraviolet ray having a medium wavelength (i.e., 280-320 nm, λmax =305 nm) to induce erythema. After the UV irradiation, 10 μl of a solution of the test sample compound in olive oil was applied to the sections on one side. The formation of the erythema was observed over a period of time. The average erythema (E1) in the section to which the sample compound was applied and the average erythema (E0) in the section to which no sample compounds were applied were measured. […] [formula] When the inhibitory value (%) is large, the antiinflammatory activity of the sample compound is high.
# in vivo [4] = conditions: mouse, oral, ddY male mice, 7 days of observation
# Procedure: The evaluation test was carried out using ddY male mice (i.e., body weight =18 to 22 g, 10 mice in each group).
# (§5) The sample compound listed in Table 2 was dispersed in 0.5% carboxymethyl cellulose/physiological saline solution and orally administered in a given amount by a peroral syringe. After the administration, the toxic conditions were observed and the oral acute toxicity (LD50) was calculated from the death number during 7 days of observation according to a Litchfield Wilcoxon method.
# UV induced erythema [5] = assay: Evaluation Test Example 6 (Antiinflammatory Activity), ultraviolet erythema method; format: in vivo, guinea pig; conditions: topical; for Prevention % (UV induced erythema): 25 μg/cm^2, 3 hours after UV irradiation
# Procedure: as §4
# The anti-inflammatory activity test of 2-furanmethyl-N-(2,3-xylyl)anthranilate was carried out in the same manner as in Evaluation Test Example 5.
# [6] = background art; cited from earlier work
# [7] = test system: carrageenan foot pad edema; assay: Evaluation Test Example 4 (Antiinflammatory Activity), rat/carrageenan foot pad edema method; format: in vivo; conditions: oral, 100 mg/kg; for Prevention % (carrageenan edema): 5 hours after λ-carrageenan injection
# Procedure: as §1, §2, §3
# The evaluation test of 2-furanmethyl-N-(2,3-xylyl) anthranilate was carried out in the same manner as in Evaluation Test Example 3.
# [8] = oral administration, background art; cited from earlier work
# in vivo [9] = conditions: mouse, in vivo; oral, ICR female mice
# Procedure: (§6) The evaluation test was carried out using ICR female mice (i.e., body weight=18 to 22 g, 10 mice in each group).
# as §5, with “compounds” for “compound”, “3 were” for “2 was”, “2.0%” for “0.5%”, “number” for “number during 7 days of observation”, “Van Der Werden” for “Litchfield Wilcoxon”
# ICR female mice = assay: in vivo
# Procedure: as §6
# as §5, with “compounds” for “compound”, “3 were” for “2 was”, “2.0%” for “0.5%”, “number” for “number during 7 days of observation”, “Van Der Werden” for “Litchfield Wilcoxon”
smiles,measurement,setting,value
Cc1cccc(Nc2ccccc2C(=O)OCc2ccccn2)c1C [drawing 9],Inhibition % (carrageenan edema),[1],61.3%
"Cc1cccc(Nc2ccccc2C(=O)OCc2cccnc2)c1C [3-pyridylmethyl-N-(2,3-xylyl)anthranilate]",Inhibition % (pain induced by brewer's yeast),[2],48.3%
Cc1cccc(Nc2ccccc2C(=O)OCCCc2cccnc2)c1C [drawing 16],Inhibition % (UV induced erythema),UV induced erythema [3],33.2%
Cc1cccc(Nc2ccccc2C(=O)OCCc2ccccn2)c1C [drawing 7],LD50 at 168 h,in vivo [4],4100 mg/kg
"CC(C)Cc1ccc(C(C)C(=O)OCc2ccccn2)cc1 (centres unmarked) [2-(p-isobutylphenyl)propionic acid-2-pyridylmethyl ester, reference compound]",Inhibition % (pain induced by brewer's yeast),[2],39.2%
Cc1cccc(Nc2ccccc2C(=O)OCc2ccccn2)c1C [drawing 12],Inhibition % (UV induced erythema),UV induced erythema [3],47.6%
Cc1cccc(Nc2ccccc2C(=O)OCc2ccncc2)c1C [drawing 6],LD50 at 168 h,in vivo [4],4850 mg/kg
Cc1cccc(Nc2ccccc2C(=O)OCCCc2cccnc2)c1C [drawing 8],LD50 at 168 h,in vivo [4],3750 mg/kg
"Cc1cccc(Nc2ccccc2C(=O)OCCc2ccccn2)c1C [2-(2-pyridyl)ethyl-N-(2,3-xylyl)anthranilate]",Inhibition % (pain induced by brewer's yeast),[2],45.5%
Cc1cccc(Nc2ccccc2C(=O)OCc2ccncc2)c1C [drawing 14],Inhibition % (UV induced erythema),UV induced erythema [3],43.1%
Cc1cccc(Nc2ccccc2C(=O)OCc2cccnc2)c1C [drawing 5],LD50 at 168 h,in vivo [4],3820 mg/kg
"Cc1cccc(Nc2ccccc2C(=O)OCc2ccccn2)c1C [2-pyridylmethyl-N-(2,3-xylyl)anthranilate]",Inhibition % (pain induced by brewer's yeast),[2],53.6%
Cc1cccc(Nc2ccccc2C(=O)OCCc2ccccn2)c1C [drawing 15],Inhibition % (UV induced erythema),UV induced erythema [3],35.4%
Cc1cccc(Nc2ccccc2C(=O)OCc2cccnc2)c1C [drawing 13],Inhibition % (UV induced erythema),UV induced erythema [3],51.3%
"Cc1cccc(Nc2ccccc2C(=O)O)c1C [N-(2,3-xylyl)anthranilic acid, reference compound]",Inhibition % (pain induced by brewer's yeast),[2],32.8%
same,Prevention % (UV induced erythema),UV induced erythema [5],35.4%
same,"solubility in water, an alcohol, or an oil",[6],very difficult to dissolve
same,Prevention % (carrageenan edema),[7],46.8%
same,side effects,[8],"various side effects including enterogasteric disorders, renal disorders, and vertigo occur"
same,Inhibition % (carrageenan edema),[1],56.8%
same,Inhibition % (UV induced erythema),UV induced erythema [3],32.8%
"Cc1cccc(Nc2ccccc2C(=O)OCc2ccco2)c1C [2-furanmethyl-N-(2,3-xylyl)anthranilate]",Inhibition % (pain induced by brewer's yeast),[2],56.5%
same,Prevention % (UV induced erythema),UV induced erythema [5],54.3%
same,"erythema [inhibition] versus N-(2,3-xylyl)anthranilic acid","UV induced erythema [5]; 25 μg/cm^2, in words","stronger than that of the known N-(2,3-xylyl)anthranilic acid"
same,Prevention % (carrageenan edema),[7],50.7%
same,"edema inhibitory activity versus N-(2,3-xylyl)anthranilic acid",[7]; in words,"as strong as for the known N-(2,3-xylyl)anthranilic acid"
same,LD50,in vivo [9],5480 mg/kg
same,"LD50 relative to known N-(2,3-xylyl)anthranilic acid",ICR female mice; oral,about 4 times higher
same,toxicity,"ICR female mice; oral acute toxicity, in words",very low
Cc1cccc(Nc2ccccc2C(=O)OCc2cccnc2)c1C [drawing 10],Inhibition % (carrageenan edema),[1],55.2%
Cc1cccc(Nc2ccccc2C(=O)OCc2ccncc2)c1C [drawing 11],Inhibition % (carrageenan edema),[1],53.5%
Cc1cccc(Nc2ccccc2C(=O)OCc2ccccn2)c1C [drawing 4],LD50 at 168 h,in vivo [4],4420 mg/kg
